{"source": "patent US20260109707A1", "about": "“HETEROBIFUNCTIONAL COMPOUNDS AND METHODS OF TREATING DISEASE” (Halda Therapeutics OpCo. Inc., priority 2022, published 2026)", "key": {"[1]": {"tested_on": "T-Rex 293 cell line SC3 cells having increased expression of androgen receptor protein due to exposure to doxycycline", "test": "Cellular growth inhibition assay, T-Rex 293 SC3 cells with doxycycline (CellTiter-Glo, 72 hours)", "type": "cell-based", "details": "72 h, T-Rex 293 SC3 cells with increased androgen receptor expression due to doxycycline (10 ng/mL)", "procedure,_shortened": "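Growth inhibition is measured in an inducible AR-expressing T-Rex 293 clone, SC3, cultured with or without 10 ng/mL doxycycline in hormone-depleted medium. Test compounds are applied for 72 hours. GI50 values derive from CellTiter-Glo 2.0 signal fitted by four-parameter regression.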"}, "[2]": {"tested_on": "VCaP cells", "test": "Cellular growth inhibition assay for VCaP cells (CellTiter-Glo, 72 hours)", "type": "cell-based, human", "details": "Homo sapiens, VCaP, 72 h", "procedure,_shortened": "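Luminescent viability signal after 72 h of compound exposure gave GI50 values by four-parameter nonlinear regression. Compounds were added in 0.5% DMSO to cells plated 24 h earlier at 5000/well in DMEM containing 10% FBS.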"}, "[3]": {"test": "Cellular growth inhibition assay, T-Rex 293 SC cells with doxycycline (CellTiter-Glo, 72 hours)", "type": "cell-based", "details": "T-Rex 293 SC cells with doxycycline (increased progesterone receptor isoform B)", "protocol": "The following types of cells were prepared for this experiment: (i) a T-Rex 293 cell line having increased expression of progesterone receptor isoform B protein due to exposure to doxycycline and (ii) a T-Rex 293 cell line lacking increased expression of progesterone receptor isoform B protein. Ability of the test compounds to inhibit proliferation of the foregoing cell types was evaluated according to the procedures set forth below.\nThe doxycycline-inducible progesterone receptor isoform B protein expressing cell line was established using the following protocol: T-Rex 293 cells were purchased from Invitrogen (Cat #R71007) and transfected using Lipofectamine 2000 with the wild-type progesterone receptor B protein sequence cloned into the pcDNA4/TO vector. Transfected cells were selected using 400 μg/mL Zeocin (Invitrogen Cat #R25001). Following selection, single clones were raised and maintained in Dulbecco's Modified Eagle Medium (DMEM) supplemented with 10% w/w Tetracycline-free fetal bovine serum (FBS) and 250 μg/mL Zeocin. Clones were analyzed for expression of progesterone receptor isoform B protein in the presence and absence of 10 ng/mL doxycycline (Sigma Cat #D9891), and a single doxycycline-inducible clone (hereinafter “SC”) was selected for use in downstream assays.\nThe SC cells were seeded on poly-D-lysine coated, black clear-bottom 384-well plates at 2500/well, in 25 μL Phenol Red Free Dulbecco's Modified Eagle Medium (DMEM) supplemented with 10% w/w charcoal-dextran treated fetal bovine serum (FBS) and 1% w/w pen-strep, with or without 10 ng/mL doxycycline. Pen-Strep is a commercially available mixture of penicillin G and streptomycin, which is used in mammalian cell culture media to prevent bacterial contamination. Phenol Red Free Dulbecco's Modified Eagle Medium (DMEM) supplemented with 10% w/w charcoal-dextran treated fetal bovine serum (FBS) and 1% w/w pen-strep, with or without 10 ng/mL doxycycline is herein referred to as Treatment Medium. Following seeding of cells in the plates, the plates were spun at 300×g for 30 seconds, then equilibrated to room temperature for 30 minutes, and then deposited in a humidified tissue culture incubator maintained at 37° C. with 5% CO2.\nAt 24 hours after seeding of the cells, dilutions of test compound were prepared in DMSO and dissolved in Treatment Medium, to achieve a final DMSO concentration of 0.5% w/w, thereby providing the Test Compound Solution. A 25 μL aliquot of the Test Compound Solution was added to cells in the well plates. An equal volume of a solution containing DMSO and Treatment Medium was used as a negative control. Following treatment of cells with Test Compound Solution or said equal volume of a solution containing DMSO and Treatment Medium, the plates were spun at 300×g for 30 seconds, and then left in an incubator for 72 hours.\nAt the end of the treatment duration, cell viability was quantified with CellTiter-Glo 2.0 reagent (Promega Cat #G9243). For this purpose, plates were equilibrated to room temperature for 30 minutes, and then 25 μL of CellTiter-Glo 2.0 reagent was added to cells in the plate wells. Plates were then agitated on a shaker for two minutes at 500 rpm and subsequently incubated at room temperature for 10 minutes. Following incubation, the plates were spun at 3000×g for 30 seconds, then sealed with an optical adhesive cover, and luminescence readings were measured with an EnVision Plate Reader (Perkin Elmer).\nData was normalized using zero luminescence for baseline. A four-parameter non-linear regression curve fit was applied to dose-response data in GraphPad Prism data analysis software to determine the half-maximal growth inhibitory concentration (GI50) for each test compound."}}}
{"compound": "CCNC(=O)C[C@@H]1N=C(c2ccc(CCCOC3CCN(c4ccc(C(=O)N[C@H]5CC[C@H](Oc6ccc(C#N)c(Cl)c6)CC5)nn4)CC3)cc2)c2c(sc(C)c2C)-n2c(C)nnc21", "note": "[I-17]", "values": [{"measurement": "GI50", "setting": "[1]", "result": "< 500", "unit": "nM"}, {"measurement": "GI50", "setting": "[2]", "result": "< 500", "unit": "nM"}]}
{"compound": "CCNC(=O)C[C@@H]1N=C(c2ccc(OCC3CN(c4ccc(C(=O)N[C@H]5CC[C@H](Oc6ccc(C#N)c(Cl)c6)CC5)nn4)C3)cc2)c2c(sc(C)c2C)-n2c(C)nnc21", "note": "[I-29]", "values": [{"measurement": "GI50", "setting": "[1]", "result": "< 500", "unit": "nM"}, {"measurement": "GI50", "setting": "[2]", "result": "< 500", "unit": "nM"}]}
{"compound": "CCNC(=O)C[C@@H]1N=C(c2ccc(OCCOCCOC3CCN(c4ccc(C(=O)N[C@H]5CC[C@H](Oc6ccc(C#N)c(Cl)c6)CC5)nn4)CC3)cc2)c2c(sc(C)c2C)-n2c(C)nnc21", "note": "[I-10]", "values": [{"measurement": "GI50", "setting": "[1]", "result": "< 500", "unit": "nM"}, {"measurement": "GI50", "setting": "[3]", "result": "< 500", "unit": "nM"}, {"measurement": "GI50", "setting": "[2]", "result": "< 500", "unit": "nM"}]}
{"compound": "CCNC(=O)C[C@@H]1N=C(c2ccc(OCCOC3CCN(c4ccc(C(=O)N[C@H]5CC[C@H](Oc6ccc(C#N)c(Cl)c6)CC5)nn4)CC3)cc2)c2c(sc(C)c2C)-n2c(C)nnc21", "note": "[I-8]", "values": [{"measurement": "GI50", "setting": "[1]", "result": "< 500", "unit": "nM"}, {"measurement": "GI50", "setting": "[3]", "result": "< 500", "unit": "nM"}, {"measurement": "GI50", "setting": "[2]", "result": "< 500", "unit": "nM"}]}
{"compound": "CCNC(=O)C[C@@H]1N=C(c2ccc(CC3CCN(c4ccc(C(=O)N[C@H]5CC[C@H](Oc6ccc(C#N)c(Cl)c6)CC5)nn4)CC3)cc2)c2c(sc(C)c2C)-n2c(C)nnc21", "note": "[I-20]", "values": [{"measurement": "GI50", "setting": "[1]", "result": "< 500", "unit": "nM"}, {"measurement": "GI50", "setting": "[3]", "result": "< 500", "unit": "nM"}, {"measurement": "GI50", "setting": "[2]", "result": "< 500", "unit": "nM"}]}
{"compound": "CCNC(=O)C[C@@H]1N=C(c2ccc(N3CCC(OC4CCN(c5ccc(C(=O)N[C@H]6CC[C@H](Oc7ccc(C#N)c(Cl)c7)CC6)nn5)CC4)CC3)cc2)c2c(sc(C)c2C)-n2c(C)nnc21", "note": "[I-44]", "values": [{"measurement": "GI50", "setting": "[1]", "result": "< 500", "unit": "nM"}, {"measurement": "GI50", "setting": "[2]", "result": "< 500", "unit": "nM"}]}
{"compound": "Cc1sc2c(c1C)C(c1ccc(Cl)cc1)=N[C@@H](CC(=O)NCCOCCOCCOC1CCN(c3ccc(C(=O)N[C@H]4CC[C@H](Oc5ccc(C#N)c(Cl)c5)CC4)nn3)CC1)c1nnc(C)n1-2", "note": "[I-2, N-[4-(3-chloro-4-cyano-phenoxy)cyclohexyl]-6-[4-[2-[2-[2-[[2-[(9S)-7-(4-chlorophenyl)-4,5,13-trimethyl-3-thia-1,8,11,12-tetrazatricyclo[8.3.0.0^2,6]trideca-2(6),4,7,10,12-pentaen-9-yl]acetyl]amino]ethoxy]ethoxy]ethoxy]-1-piperidyl]pyridazine-3-carboxamide]", "values": [{"measurement": "GI50", "setting": "[1]", "result": "< 500", "unit": "nM"}, {"measurement": "GI50", "setting": "[3]", "result": "< 500", "unit": "nM"}, {"measurement": "GI50", "setting": "[2]", "result": "< 500", "unit": "nM"}]}
{"compound": "Cc1sc2c(c1C)C(c1ccc(Cl)cc1)=N[C@@H](CC(=O)NCCOC1CCN(c3ccc(C(=O)N[C@H]4CC[C@H](Oc5ccc(C#N)c(Cl)c5)CC4)nn3)CC1)c1nnc(C)n1-2", "note": "[I-1, N-[4-(3-chloro-4-cyano-phenoxy)cyclohexyl]-6-[4-[2-[[2-[(9S)-7-(4-chlorophenyl)-4,5,13-trimethyl-3-thia-1,8,11,12-tetrazatricyclo[8.3.0.0^2,6]trideca-2(6),4,7,10,12-pentaen-9-yl]acetyl]amino]ethoxy]-1-piperidyl]pyridazine-3-carboxamide]", "values": [{"measurement": "GI50", "setting": "[1]", "result": "500 to 1500", "unit": "nM"}, {"measurement": "GI50", "setting": "[3]", "result": "< 500", "unit": "nM"}, {"measurement": "GI50", "setting": "[2]", "result": "< 500", "unit": "nM"}]}
{"compound": "CCNC(=O)C[C@@H]1N=C(c2ccc(OCCCN(C)c3ccc(C(=O)N[C@H]4CC[C@H](Oc5ccc(C#N)c(Cl)c5)CC4)nn3)cc2)c2c(sc(C)c2C)-n2c(C)nnc21", "note": "[I-48]", "values": [{"measurement": "GI50", "setting": "[1]", "result": "< 500", "unit": "nM"}, {"measurement": "GI50", "setting": "[2]", "result": "< 500", "unit": "nM"}]}
{"compound": "CCNC(=O)C[C@@H]1N=C(c2ccc(N3CC4(C3)CN(c3ccc(C(=O)N[C@H]5CC[C@H](Oc6ccc(C#N)c(Cl)c6)CC5)nn3)C4)cc2)c2c(sc(C)c2C)-n2c(C)nnc21", "note": "[I-24]", "values": [{"measurement": "GI50", "setting": "[1]", "result": "500 to 1500", "unit": "nM"}, {"measurement": "GI50", "setting": "[3]", "result": "< 500", "unit": "nM"}, {"measurement": "GI50", "setting": "[2]", "result": "< 500", "unit": "nM"}]}
